Like-named read-outs stand apart in the source and are kept apart here.
Molecular target: T1, full-length SARM1 (FL-SARM1) (Homo sapiens, UniProt Q6SZW1)
T1 sequence (Q6SZW1 28-724): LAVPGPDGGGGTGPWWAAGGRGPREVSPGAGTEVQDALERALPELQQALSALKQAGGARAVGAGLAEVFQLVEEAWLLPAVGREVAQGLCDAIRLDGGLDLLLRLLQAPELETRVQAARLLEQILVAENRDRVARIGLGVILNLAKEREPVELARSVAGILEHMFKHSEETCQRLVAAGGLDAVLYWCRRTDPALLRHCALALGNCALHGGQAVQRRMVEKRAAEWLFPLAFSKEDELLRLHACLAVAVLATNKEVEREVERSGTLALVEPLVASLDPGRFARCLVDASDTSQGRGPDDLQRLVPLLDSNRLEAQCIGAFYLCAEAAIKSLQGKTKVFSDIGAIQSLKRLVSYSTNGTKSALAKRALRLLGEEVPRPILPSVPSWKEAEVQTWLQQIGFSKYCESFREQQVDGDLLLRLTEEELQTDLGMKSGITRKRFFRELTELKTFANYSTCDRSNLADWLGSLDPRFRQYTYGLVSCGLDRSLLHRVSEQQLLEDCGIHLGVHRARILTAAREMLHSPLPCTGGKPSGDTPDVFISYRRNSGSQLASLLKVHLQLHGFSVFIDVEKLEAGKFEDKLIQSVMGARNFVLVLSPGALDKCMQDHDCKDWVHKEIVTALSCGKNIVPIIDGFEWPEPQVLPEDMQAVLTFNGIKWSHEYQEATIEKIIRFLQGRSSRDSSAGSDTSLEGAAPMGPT
Assay: FL-SARM1 cellular lysate assay (NAD/NADH-Glo detection of remaining NAD+, NMN-activated)

[1] = Activity (μM) (IC50), 11 point curve
[2] = read-out: Activity (IC50 class), 11 point curve
[3] = Activity (IC50 class), 11 point curve

SMILES: Cc1ccc(NC(=O)C2CC3CC[C@@H]2C3)cc1-c1ccccn1 (single isomer, unassigned) [Example 140]
- IC50 [1]: 0.9 µM
- IC50 [2]: 0.0001 to 1 µM

SMILES: Cc1ccc(NC(=O)N2CCCC2C2CC2)cc1-c1ccccn1 (racemic) [Example 92, 2-cyclopropyl-N-(4-methyl-3-pyridin-2-ylphenyl)pyrrolidine-1-carboxamide]
- IC50 [3]: 1 to 10 µM
- IC50 [1]: 2.3 µM

SMILES: Cc1cc(F)cnc1-c1cccc(NC(=O)N2C3CCCC2C3)c1 [Example 81, N-[3-(5-fluoro-3-methylpyridin-2-yl)phenyl]-6-azabicyclo[3.1.1]heptane-6-carboxamide]
- IC50 [3]: 1 to 10 µM
- IC50 [1]: 3.4 µM

SMILES: O=C(Nc1ccc(Cl)c(-c2ccc(F)cn2)c1)N1C2CCCC1C2 [Example 46, N-(4-chloro-3-(5-fluoropyridin-2-yl)phenyl)-6-azabicyclo[3.1.1]heptane-6-carboxamide]
- IC50 [1]: 0.2 µM
- IC50 [2]: 0.0001 to 1 µM

SMILES: Cc1ccc(NC(=O)N2C3CC(C)CC2(C(C)O)C3)cc1-c1ncc(F)cn1 (single isomer, unassigned) [Example 193, cis-N-(3-(5-fluoropyrimidin-2-yl)-4-methylphenyl)-1-(1-hydroxyethyl)-3-methyl-6-azabicyclo[3.1.1]heptane-6-carboxamide]
- IC50 [1]: 0.1 µM
- IC50 [2]: 0.0001 to 1 µM

SMILES: Cc1ccc(NC(=O)[C@H]2[C@H](C)OCCN2c2ccccn2)cc1-c1ncc(F)cn1 [Example 270, (2S,3R)-N-(3-(5-fluoropyrimidin-2-yl)-4-methylphenyl)-2-methyl-4-(pyridin-2-yl)morpholine-3-carboxamide]
- IC50 [3]: 1 to 10 µM
- IC50 [1]: 9.5 µM

SMILES: Cc1ccc(NC(=O)C2C3CCC2(c2ccccn2)C3)cc1-c1ncc(F)cn1 (mixture of isomers) [Example 318]
- IC50 [3]: 1 to 10 µM
- IC50 [1]: 1.5 µM

SMILES: Cc1nnc(CN2[C@@H](C(=O)Nc3ccc(C)c(-c4ncc(F)cn4)c3)C[C@H]3C[C@H]32)o1 [Example 171, (1R,3R,5R)—N-(3-(5-fluoropyrimidin-2-yl)-4-methylphenyl)-2-((5-methyl-1,3,4-oxadiazol-2-yl)methyl)-2-azabicyclo[3.1.0]hexane-3-carboxamide]
- IC50 [3]: > 10 µM
- IC50 [1]: 18 µM

SMILES: O=C(Nc1ccc(C(F)(F)F)c(-c2ncc(F)cn2)c1)N1CCCCCC1 [Example 313, N-(3-(5-fluoropyrimidin-2-yl)-4-(trifluoromethyl)phenyl) azepane-1-carboxamide]
- IC50 [1]: 0.8 µM
- IC50 [2]: 0.0001 to 1 µM

SMILES: Cc1ccc(NC(=O)[C@@H]2C[C@H]3CC[C@@H]2N3c2ccccn2)cc1-c1ncc(F)cn1 (racemic) [Example 275, cis-N-(3-(5-fluoropyrimidin-2-yl)-4-methylphenyl)-7-(pyridin-2-yl)-7-azabicyclo[2.2.1]heptane-2-carboxamide]
- IC50 [3]: 1 to 10 µM
- IC50 [1]: 4.9 µM

SMILES: Cc1ccc(NC(=O)N2C3C[C@@H]2CC[C@@H]3C)cc1-c1ccccn1 (single isomer, unassigned) [Example 47, cis-2-methyl-N-(4-methyl-3-(pyridin-2-yl)phenyl)-6-azabicyclo[3.1.1]heptane-6-carboxamide]
- IC50 [1]: 0.06 µM
- IC50 [2]: 0.0001 to 1 µM

SMILES: CO[C@@H]1C[C@H](C(=O)Nc2ccc(C)c(-c3ncc(F)cn3)c2)N(c2ncccn2)C1 [Example 324]
- IC50 [3]: > 10 µM
- IC50 [1]: 17 µM

SMILES: Cc1ccc(NC(=O)[C@H]2C[C@H]3C[C@H]3N2c2ncccn2)cc1-c1ncc(F)cn1 [Example 267, (1R,3R,5R)-N-[3-(5-fluoropyrimidin-2-yl)-4-methylphenyl]-2-pyrimidin-2-yl-2-azabicyclo[3.1.0]hexane-3-carboxamide]
- IC50 [3]: 1 to 10 µM
- IC50 [1]: 3.1 µM

SMILES: Cc1cc(F)c(NC(=O)N2[C@@H]3C[C@@H](C)C[C@H]2C3)cc1-c1cccnn1 [Example 256, cis-N-(2-fluoro-4-methyl-5-pyridazin-3-ylphenyl)-3-methyl-6-azabicyclo[3.1.1]heptane-6-carboxamide]
- IC50 [1]: 0.1 µM
- IC50 [2]: 0.0001 to 1 µM

SMILES: Cc1ccc(NC(=O)N2[C@@H]3C[C@@H](C)C[C@H]2C3)cc1-c1cc(OCF)cnn1 [Example 185, cis-N-(3-(5-(fluoromethoxy)pyridazin-3-yl)-4-methylphenyl)-3-methyl-6-azabicyclo[3.1.1]heptane-6-carboxamide]
- IC50 [1]: 0.05 µM
- IC50 [2]: 0.0001 to 1 µM

SMILES: Cc1ccc(NC(=O)N2C3C[C@@H](C)C[C@@H]2C3)cc1-c1ncc(F)cn1 [Example 50, trans-N-(3-(5-fluoropyrimidin-2-yl)-4-methylphenyl)-3-methyl-6-azabicyclo[3.1.1]heptane-6-carboxamide]
- IC50 [1]: 0.02 µM
- IC50 [2]: 0.0001 to 1 µM

SMILES: CC(=O)N1C[C@H](c2ccccc2)C[C@@H]1C(=O)Nc1ccc(C)c(-c2ncc(F)cn2)c1 [Example 321]
- IC50 [3]: > 10 µM
- IC50 [1]: 24 µM

SMILES: Cc1ccc(NC(=O)N2C3CC2CN(C2CCC2)C3)cc1-c1ccccn1 [Example 6, 3-Cyclobutyl-N-(4-methyl-3-(pyridin-2-yl)phenyl)-3,6-diazabicyclo[3.1.1]heptane-6-carboxamide]
- IC50 [3]: 1 to 10 µM
- IC50 [1]: 4.2 µM

SMILES: Cc1ccc(NC(=O)[C@H]2CCCN2c2ccccn2)cc1-c1ncc(F)cn1 [Example 279, (2R)-N-[3-(5-fluoropyrimidin-2-yl)-4-methylphenyl]-1-pyridin-2-ylpyrrolidine-2-carboxamide]
- IC50 [3]: 1 to 10 µM
- IC50 [1]: 4.2 µM

SMILES: Cc1ccc(NC(=O)N2C3CCC2[C@H](C)C3)cc1-c1ncc(F)cn1 (single isomer, unassigned) [Example 197, trans-N-[3-(5-fluoropyrimidin-2-yl)-4-methylphenyl]-2-methyl-7-azabicyclo[2.2.1]heptane-7-carboxamide]
- IC50 [1]: 0.4 µM
- IC50 [2]: 0.0001 to 1 µM

SMILES: Cc1ccc(NC(=O)N2C3CC2CN(c2ncccn2)C3)cc1-c1ccccn1 [Example 72, N-(4-methyl-3-(pyridin-2-yl)phenyl)-3-(pyrimidin-2-yl)-3,6-diazabicyclo[3.1.1]heptane-6-carboxamide]
- IC50 [3]: 1 to 10 µM
- IC50 [1]: 1.2 µM

SMILES: COc1ccnc(-c2cc(NC(=O)N3C4CCCC3C4)ccc2C)n1 [Example 65, N-(3-(4-methoxypyrmidin-2-yl)-4-methyl-phenyl)-6-azabicyclo[3.1.1]heptane-6-carboxamide]
- IC50 [3]: 1 to 10 µM
- IC50 [1]: 2.3 µM

SMILES: Cc1cc(Cl)c(NC(=O)N2C3CCCC2C3)cc1-c1ccccn1 [Example 82, N-(2-chloro-4-methyl-5-pyridin-2-ylphenyl)-6-azabicyclo[3.1.1]heptane-6-carboxamide]
- IC50 [3]: 1 to 10 µM
- IC50 [1]: 1.5 µM

SMILES: Cc1ccc(NC(=O)C2COC(C)(C)CN2c2ncccn2)cc1-c1ncccn1 (single isomer, unassigned) [Example 207, 6,6-dimethyl-N-(4-methyl-3-(pyrimidin-2-yl)phenyl)-4-(pyrimidin-2-yl)morpholine-3-carboxamide]
- IC50 [3]: > 10 µM
- IC50 [1]: > 50 µM

SMILES: Cc1ccc(NC(=O)[C@@H]2C[C@H]3CC[C@@H]2C3)cc1-c1ccccn1 (single isomer, unassigned) [Example 138, cis-N-(4-methyl-3-pyridin-2-ylphenyl)bicyclo[2.2.1]heptane-2-carboxamide]
- IC50 [1]: 0.7 µM
- IC50 [2]: 0.0001 to 1 µM

SMILES: Cc1ccc(NC(=O)N2C3CCCC2C3)cc1-c1cc(C#N)cnn1 [Example 63, N-(3-(5-cyanopyridazin-3-yl)-4-methylphenyl)-6-azabicyclo[3.1.1]heptane-6-carboxamide]
- IC50 [1]: 0.7 µM
- IC50 [2]: 0.0001 to 1 µM

Reference: US20250171462A1 (NICO Therapeutics, Inc., priority 2022, published 2025)
